Results taken from article PMC9706020, “Isovitexin Is a Direct Inhibitor of Staphylococcus aureus Coagulase” (Journal of Microbiology and Biotechnology, 2021).
pKd: −log10 of the molar value.

Experiments:
[1] = molecular target: T1, S. aureus coagulase (Coa); 6×His-Coa; WT-Coa (Staphylococcus aureus, UniProt Q2G1D3); assay: plate coagulation assay (agarose, fibrinogen, rabbit plasma); assay type: biochemical; details: 2.5 mg/ml Coa; 37 °C overnight; rabbit plasma as prothrombin source
T1 construct: gene SAOUHSC_00192; 6×His-tagged Coa from pET15b-Coa, expressed in E. coli BL21(DE3), Ni-NTA purified

[2] = molecular target: T1, S. aureus coagulase (Coa); 6×His-Coa; WT-Coa; assay: intrinsic fluorescence quenching; assay type: binding
[3] = molecular target: T2, S. aureus coagulase (Coa); 6×His-Coa; WT-Coa (Staphylococcus aureus, UniProt Q2G1D3, N267A); assay: biochemical
T2 construct: gene SAOUHSC_00192
Source text: (§1) intrinsic fluorescence quenching on S. aureus coagulase (Coa); 6×His-Coa; WT-Coa

[4] = molecular target: T3, S. aureus coagulase (Coa); 6×His-Coa; WT-Coa (Staphylococcus aureus, UniProt Q2G1D3, P268A); assay: biochemical
T3 construct: gene SAOUHSC_00192
Source text: as §1

[5] = molecular target: T4, S. aureus coagulase (Coa); 6×His-Coa; WT-Coa (Staphylococcus aureus, UniProt Q2G1D3, V191A); assay: biochemical
T4 construct: gene SAOUHSC_00192
Source text: as §1

[6] = molecular target: T5, S. aureus coagulase (Coa); 6×His-Coa; WT-Coa (Staphylococcus aureus, UniProt Q2G1D3, Y188A); assay: biochemical
T5 construct: gene SAOUHSC_00192
Source text: as §1

## O=c1cc(-c2ccc(O)cc2)oc2cc(O)c([C@@H]3O[C@H](CO)[C@@H](O)[C@H](O)[C@H]3O)c(O)c12 [isovitexin, apigenin-6-C-β-glucopyranoside]
[1]
  diameter of coagulation zone, % of control, at 128 μg/ml: 47.50%
[2]
  pKd: 5.00
[3]
  pKd: 4.91
[4]
  pKd: 4.71
[5]
  pKd: 4.64
[6]
  pKd: 4.94
